The target in one assay is T1, BRAF V600E (Homo sapiens, UniProt P15056+Q96SW2, V600E).
T1 construct: knock-in of the HiBiT tag to the endogenous BRAF V600E locus; host or cells: A375.10 (A375 clonal line, CRISPR HiBiT knock-in at the endogenous BRAF V600E locus)
Put plainly: BRAF V600E HiBiT Degradation Assay. It is filed as cell-based. The method, boiled down: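 Endogenous HiBiT knock-in on BRAF V600E in A375 cells (clone A375.10); 11-point half-log series, top 10 μM, 2, 6 or 24 h at 37° C. Lytic HiBiT luminescence, background-subtracted, normalized to DMSO; 4-parameter fit gives DC50, Emax (residual protein) and IP (inflection point).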

The subject of the next assay is A375-NRAS^Q61K cells. Put plainly: CTGlo Cell Viability Assay, A375-NRAS^Q61K (A375.11) cells, 96 hours. It is filed as cell-based, human. The following applies: A375.11 (A375-NRAS^Q61K) cells; for Emax / CTGlo A375.11 96 hours Emax: lowest % viability achieved. The method in brief:
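Viability as CellTiter-Glo ATP luminescence after 96 h compound exposure at 37 °C; A375.11 (BRAF V600E/NRAS Q61K) cells at 250/well, top final concentration 10 μM in half-log steps. Signal was background-corrected and set relative to DMSO controls. A 4-parameter logistic fit gave GI50 (50% crossing) and Emax.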

The mark [1] stands for this setting: A375.10 cells, BRAF V600E, 2 hours, inflection point, read-out: HiBiT-Degradation A375.10 BRAF 2 hours IP.
Where [2] appears, read: A375.10 cells, BRAF V600E, 2 hours, read-out: HiBiT-Degradation A375.10 BRAF 2 hours DC50.
Setting [3] is: read-out: HiBiT-Degradation A375.10 BRAF 2 hours Emax, A375.10 cells, BRAF V600E, 2 hours, residual protein remaining.
[4] abbreviates: A375.10 cells, BRAF V600E, 2 hours, residual protein remaining, read-out: HiBiT-Degradation A375.10 BRAF 2 hours Emax.
The mark [5] stands for this setting: A375.10 cells, BRAF V600E, 2 hours, residual protein remaining.
The mark [6] stands for this setting: A375.10 cells, HiBiT, BRAF V600E, 24 hours, read-out: HiBiT-Degradation A375.10 BRAF 24 hours DC50.
[7] abbreviates: A375.10 cells, HiBiT, BRAF V600E, 24 hours, read-out: HiBiT-Degradation A375.10 BRAF 24 hours Emax.
Where [8] appears, read: A375.10 cells, HiBiT, BRAF V600E, 24 hours, read-out: HiBiT-Degradation A375.10 BRAF 24 hours IP.

The values below come from patent US20260297060A1, “COMPOUNDS FOR THE DEGRADATION OF MUTANT BRAF” (C4 THERAPEUTICS, INC., priority 2023, published 2026).

Read-outs that look alike come from different tables or passages of the source.

T1 sequence (P15056 whole entry V600E): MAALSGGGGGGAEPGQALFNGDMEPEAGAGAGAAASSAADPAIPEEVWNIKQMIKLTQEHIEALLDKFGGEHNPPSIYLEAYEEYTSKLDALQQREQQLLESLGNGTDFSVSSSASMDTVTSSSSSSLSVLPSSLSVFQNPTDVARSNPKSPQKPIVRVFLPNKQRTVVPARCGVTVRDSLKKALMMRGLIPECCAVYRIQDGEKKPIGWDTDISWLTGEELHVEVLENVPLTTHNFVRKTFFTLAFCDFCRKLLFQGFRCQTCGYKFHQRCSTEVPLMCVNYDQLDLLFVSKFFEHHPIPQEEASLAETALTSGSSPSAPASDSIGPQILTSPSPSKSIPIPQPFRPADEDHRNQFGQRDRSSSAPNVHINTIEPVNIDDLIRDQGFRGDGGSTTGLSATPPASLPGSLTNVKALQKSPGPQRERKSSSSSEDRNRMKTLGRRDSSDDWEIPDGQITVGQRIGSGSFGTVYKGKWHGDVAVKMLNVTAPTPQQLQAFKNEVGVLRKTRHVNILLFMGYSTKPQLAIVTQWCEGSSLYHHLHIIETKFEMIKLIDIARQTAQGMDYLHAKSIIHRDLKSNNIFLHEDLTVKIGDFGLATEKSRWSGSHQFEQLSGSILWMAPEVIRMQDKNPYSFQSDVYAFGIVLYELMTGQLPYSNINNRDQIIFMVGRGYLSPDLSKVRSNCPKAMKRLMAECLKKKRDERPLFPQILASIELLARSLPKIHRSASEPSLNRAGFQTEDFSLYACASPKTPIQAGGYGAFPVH
T1 sequence (Q96SW2 whole entry): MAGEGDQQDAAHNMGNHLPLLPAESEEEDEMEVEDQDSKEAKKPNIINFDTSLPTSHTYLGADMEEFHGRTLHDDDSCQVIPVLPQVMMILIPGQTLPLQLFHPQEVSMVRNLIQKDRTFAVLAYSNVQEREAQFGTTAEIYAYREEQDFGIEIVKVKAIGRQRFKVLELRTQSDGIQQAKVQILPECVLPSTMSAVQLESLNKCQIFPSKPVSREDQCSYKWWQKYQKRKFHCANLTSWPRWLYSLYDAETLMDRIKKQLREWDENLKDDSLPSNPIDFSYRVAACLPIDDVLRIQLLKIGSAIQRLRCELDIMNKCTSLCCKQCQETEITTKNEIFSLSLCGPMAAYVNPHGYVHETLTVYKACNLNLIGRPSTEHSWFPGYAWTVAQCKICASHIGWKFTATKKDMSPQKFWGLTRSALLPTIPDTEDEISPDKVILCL
T1 sequence (Q16531 whole entry partner): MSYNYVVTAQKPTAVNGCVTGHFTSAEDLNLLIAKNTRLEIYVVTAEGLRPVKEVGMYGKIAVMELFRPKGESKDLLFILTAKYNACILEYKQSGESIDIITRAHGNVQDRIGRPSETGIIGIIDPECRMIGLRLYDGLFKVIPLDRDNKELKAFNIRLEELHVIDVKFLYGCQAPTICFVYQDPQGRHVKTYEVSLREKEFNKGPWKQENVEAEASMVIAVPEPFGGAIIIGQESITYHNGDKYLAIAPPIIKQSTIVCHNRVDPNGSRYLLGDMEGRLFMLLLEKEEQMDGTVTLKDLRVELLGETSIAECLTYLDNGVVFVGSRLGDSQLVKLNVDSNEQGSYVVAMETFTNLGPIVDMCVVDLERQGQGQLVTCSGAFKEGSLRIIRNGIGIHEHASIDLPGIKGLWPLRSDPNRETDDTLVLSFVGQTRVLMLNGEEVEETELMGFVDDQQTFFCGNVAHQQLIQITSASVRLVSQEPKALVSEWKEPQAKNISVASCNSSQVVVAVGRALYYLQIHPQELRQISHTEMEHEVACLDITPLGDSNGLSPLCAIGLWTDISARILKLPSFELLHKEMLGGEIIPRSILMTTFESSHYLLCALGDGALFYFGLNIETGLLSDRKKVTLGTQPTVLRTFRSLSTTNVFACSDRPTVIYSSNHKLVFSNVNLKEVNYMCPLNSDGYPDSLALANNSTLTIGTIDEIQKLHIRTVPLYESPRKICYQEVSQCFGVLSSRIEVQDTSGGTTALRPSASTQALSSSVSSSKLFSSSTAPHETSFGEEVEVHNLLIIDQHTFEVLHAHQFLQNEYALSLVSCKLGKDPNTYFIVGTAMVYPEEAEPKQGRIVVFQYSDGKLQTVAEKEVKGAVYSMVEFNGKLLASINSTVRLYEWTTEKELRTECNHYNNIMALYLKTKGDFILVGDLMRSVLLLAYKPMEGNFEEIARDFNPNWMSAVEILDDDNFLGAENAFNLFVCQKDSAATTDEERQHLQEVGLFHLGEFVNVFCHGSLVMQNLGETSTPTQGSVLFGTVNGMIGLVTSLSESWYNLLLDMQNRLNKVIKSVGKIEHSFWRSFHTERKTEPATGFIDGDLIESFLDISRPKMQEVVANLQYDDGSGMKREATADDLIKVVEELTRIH

As to `CCN(C)S(=O)(=O)Nc1ccc(F)c(Oc2ccc3ncn([C@H]4COC5(CCC(N6CC7(CN(c8ccc(NC9CCC(=O)NC9=O)cc8F)C7)C6)CC5)C4)c(=O)c3c2)c1C#N` (single isomer, unassigned) [Compound 191], the DC50 at BRAF V600E (setting [1]) and at BRAF V600E (setting [2]) was under 1000 nM in each case. For the same molecule, the Emax at BRAF V600E (setting [3]) was under 50%; in the assay with A375-NRAS^Q61K cells (Homo sapiens, 96 h) it was under 50%. Also, the GI50 with A375-NRAS^Q61K cells was under 1000 nM.

For the molecule `CCN(C)S(=O)(=O)Nc1ccc(F)c(Oc2ccc3ncn([C@H]4COC5(CCC(N6CC7(CN(c8ccc(NC9CCC(=O)NC9=O)cc8F)C7)C6)CC5)C4)c(=O)c3c2)c1C#N` (single isomer, unassigned) [Compound 192], on BRAF V600E, the “HiBiT-Degradation A375.10 BRAF 2 hours Emax” value was “** (<90% and >50%)”. For the same molecule, on BRAF V600E (setting [1]), the DC50 was under 1000 nM. Also, the DC50 at BRAF V600E (setting [2]) was under 1000 nM. In the assay with A375-NRAS^Q61K cells, the GI50 is over 10000 nM and the “CTGlo A375.11 96 hours Emax” value is recorded as “*** (<=50%)”.

`CCN(C)S(=O)(=O)Nc1ccc(F)c(Oc2ccc3ncc(OCC4(O)CCN(C5CCC(c6cc7c(cc6F)c(N6CCC(=O)NC6=O)nn7C)CC5)CC4)nc3c2)c1C#N` (single isomer, unassigned) [Compound 195, 7-[2-cyano-3-[[ethyl(methyl)sulfamoyl]amino]-6-fluoro-phenoxy]-2-[[1-[4-[3-(2,4-dioxohexahydropyrimidin-1-yl)-5-fluoro-1-methyl-indazol-6-yl]cyclohexyl]-4-hydroxy-4-piperidyl]methoxy]quinoxaline]: the results for the DC50 on BRAF V600E (setting [1]) and on BRAF V600E (setting [2]) were under 1000 nM and over 10000 nM, respectively. Moreover, the Emax at BRAF V600E (setting [4]) was 50 to 90%; with A375-NRAS^Q61K cells (Homo sapiens, 96 h), under 50%. Besides, the GI50 in the assay on A375-NRAS^Q61K cells was over 10000 nM.

Take `CCN(C)S(=O)(=O)Nc1ccc(F)c(Oc2ccc3ncc(OCC4(O)CCN(C5CCC(c6cc7c(cc6F)c(N6CCC(=O)NC6=O)nn7C)CC5)CC4)nc3c2)c1C#N` (single isomer, unassigned) [Compound 196, 7-[2-cyano-3-[[ethyl(methyl)sulfamoyl]amino]-6-fluoro-phenoxy]-2-[[1-[4-[3-(2,4-dioxohexahydropyrimidin-1-yl)-5-fluoro-1-methyl-indazol-6-yl]cyclohexyl]-4-hydroxy-4-piperidyl]methoxy]quinoxaline]: the DC50 at BRAF V600E (setting [1]) and on BRAF V600E (setting [2]) was under 1000 nM throughout. The “HiBiT-Degradation A375.10 BRAF 2 hours Emax” value on BRAF V600E (setting [5]) was “*** (<=50%)”. The molecule also returned a 50% growth inhibitory concentration (GI50) in the assay on A375-NRAS^Q61K cells of under 1000 nM. For the same molecule, the “CTGlo A375.11 96 hours Emax” value in the assay with A375-NRAS^Q61K cells was “** (<90% and >50%)”.

With `CCN(C)S(=O)(=O)Nc1ccc(F)c(C(=O)c2ccc3ncn(C4CC5(CCN(C6CCC(c7ccc(NC8CCC(=O)NC8=O)cc7F)CC6)CC5)C4)c(=O)c3c2)c1F` (single isomer, unassigned) [Compound 199, 3-[7-[4-[4-[(2,6-dioxo-3-piperidyl)amino]-2-fluoro-phenyl]cyclohexyl]-7-azaspiro[3.5]nonan-2-yl]-6-[3-[[ethyl(methyl)sulfamoyl]amino]-2,6-difluoro-benzoyl]-4-oxo-quinazoline], the DC50 on BRAF V600E (setting [1]) and at BRAF V600E (setting [2]) was under 1000 nM throughout. For the same molecule, the Emax is under 50% on BRAF V600E (setting [4]) and 50 to 90% with A375-NRAS^Q61K cells (Homo sapiens, 96 h). For the same molecule, the GI50 with A375-NRAS^Q61K cells (Homo sapiens, 96 h) lay in the range of 1000 to 10000 nM.

Turning to `CCN(C)S(=O)(=O)Nc1ccc(F)c(C(=O)c2ccc3ncn(C4CC5(CCN(C6CCC(c7ccc(NC8CCC(=O)NC8=O)cc7F)CC6)CC5)C4)c(=O)c3c2)c1F` (single isomer, unassigned) [Compound 200, 3-[7-[4-[4-[(2,6-dioxo-3-piperidyl)amino]-2-fluoro-phenyl]cyclohexyl]-7-azaspiro[3.5]nonan-2-yl]-6-[3-[[ethyl(methyl)sulfamoyl]amino]-2,6-difluoro-benzoyl]-4-oxo-quinazoline], the DC50 on BRAF V600E (setting [1]) is under 1000 nM. Further, the DC50 at BRAF V600E (setting [2]) was under 1000 nM. Also, the “HiBiT-Degradation A375.10 BRAF 2 hours Emax” value on BRAF V600E (setting [5]) is given as “*** (<=50%)”. In the assay on A375-NRAS^Q61K cells, the GI50 fell in the range of 1000 to 10000 nM; the “CTGlo A375.11 96 hours Emax” value is “** (<90% and >50%)”.

As to `CCN(C)S(=O)(=O)Nc1ccc(F)c(Oc2ccc3ncn(CC4(F)CCN(C5CCC(c6cc7c(cc6F)c(N6CCC(=O)NC6=O)nn7C)CC5)CC4)c(=O)c3c2)c1C#N` (single isomer, unassigned) [Compound 201, 6-[2-cyano-3-[[ethyl(methyl)sulfamoyl]amino]-6-fluoro-phenoxy]-3-[[1-[4-[3-(2,4-dioxohexahydropyrimidin-1-yl)-5-fluoro-1-methyl-indazol-6-yl]cyclohexyl]-4-fluoro-4-piperidyl]methyl]-4-oxo-quinazoline], the DC50 on BRAF V600E (setting [1]) and at BRAF V600E (setting [2]) was under 1000 nM in each case. Moreover, the Emax was under 50% on BRAF V600E (setting [4]) and 50 to 90% with A375-NRAS^Q61K cells (Homo sapiens, 96 h). The molecule also had a 50% growth inhibitory concentration (GI50) in the assay on A375-NRAS^Q61K cells (Homo sapiens, 96 h) of 1000 to 10000 nM.

Take `CCN(C)S(=O)(=O)Nc1ccc(F)c(Oc2ccc3ncn(C4CC5(C4)CN(C4CCC(c6cc7c(cc6F)c(N6CCC(=O)NC6=O)nn7C)CC4)C5)c(=O)c3c2)c1C#N` (single isomer, unassigned) [Compound 203, 6-[2-cyano-3-[[ethyl(methyl)sulfamoyl]amino]-6-fluoro-phenoxy]-3-[2-[4-[3-(2,4-dioxohexahydropyrimidin-1-yl)-5-fluoro-1-methyl-indazol-6-yl]cyclohexyl]-2-azaspiro[3.3]heptan-6-yl]-4-oxo-quinazoline]: the DC50 on BRAF V600E (setting [1]), on BRAF V600E (setting [2]), at BRAF V600E (setting [6]) and at BRAF V600E (setting [8]) was under 1000 nM each time. Besides, the Emax at BRAF V600E (setting [7]) is under 50%; at BRAF V600E (setting [3]) it was under 50%; with A375-NRAS^Q61K cells (Homo sapiens, 96 h) it was 50 to 90%. The GI50 in the assay on A375-NRAS^Q61K cells is over 10000 nM.

In the case of `CCN(C)S(=O)(=O)Nc1ccc(F)c(Oc2ccc3ncn(C4CC5(CCN(C6CCC(c7cc8c(cc7F)c(N7CCC(=O)NC7=O)nn8C)CC6)C5)C4)c(=O)c3c2)c1C#N` (single isomer, unassigned) [Compound 205, 6-[2-cyano-3-[[ethyl(methyl)sulfamoyl]amino]-6-fluoro-phenoxy]-3-[6-[4-[3-(2,4-dioxohexahydropyrimidin-1-yl)-5-fluoro-1-methyl-indazol-6-yl]cyclohexyl]-6-azaspiro[3.4]octan-2-yl]-4-oxo-quinazoline], the values for the DC50 at BRAF V600E (setting [1]) and at BRAF V600E (setting [2]) were under 1000 nM and over 10000 nM, respectively. The “HiBiT-Degradation A375.10 BRAF 2 hours Emax” value at BRAF V600E (setting [5]) is “** (<90% and >50%)”. This molecule also gave a concentration for 50% growth inhibition (GI50) with A375-NRAS^Q61K cells of over 10000 nM. In the assay with A375-NRAS^Q61K cells (Homo sapiens, 96 h), this molecule registered an Emax of 50 to 90%.

In the case of `CCN(C)S(=O)(=O)Nc1ccc(F)c(Oc2ccc3ncn(C4CC5(CCN(C6CCC(c7cc8c(cc7F)c(N7CCC(=O)NC7=O)nn8C)CC6)C5)C4)c(=O)c3c2)c1C#N` (single isomer, unassigned) [Compound 206, 6-[2-cyano-3-[[ethyl(methyl)sulfamoyl]amino]-6-fluoro-phenoxy]-3-[6-[4-[3-(2,4-dioxohexahydropyrimidin-1-yl)-5-fluoro-1-methyl-indazol-6-yl]cyclohexyl]-6-azaspiro[3.4]octan-2-yl]-4-oxo-quinazoline], the DC50 at BRAF V600E (setting [1]), on BRAF V600E (setting [2]), at BRAF V600E (setting [6]) and at BRAF V600E (setting [8]) was under 1000 nM each time. The Emax at BRAF V600E (setting [4]) and on BRAF V600E (setting [7]) was under 50% in each case. In the assay with A375-NRAS^Q61K cells, the 50% growth inhibitory concentration (GI50) is under 1000 nM. Also, the “CTGlo A375.11 96 hours Emax” value with A375-NRAS^Q61K cells was “** (<90% and >50%)”.

Consider `CN(CCO)S(=O)(=O)Nc1ccc(F)c(Oc2ccc3ncn([C@H]4COC5(CCC(N6CCC(c7cc8c(cc7F)c(N7CCC(=O)NC7=O)nn8C)C(F)(F)C6)CC5)C4)c(=O)c3c2)c1C#N` (single isomer, unassigned) [Compound 212], for which the DC50 on BRAF V600E (setting [1]) and at BRAF V600E (setting [2]) was under 1000 nM in each case. Further, the Emax at BRAF V600E (setting [4]) was under 50%; with A375-NRAS^Q61K cells (Homo sapiens, 96 h), 50 to 90%. The GI50 in the assay on A375-NRAS^Q61K cells (Homo sapiens, 96 h) was under 1000 nM.

As to `CN(CCO)S(=O)(=O)Nc1ccc(F)c(Oc2ccc3ncn([C@H]4COC5(CCC(N6CCC(c7cc8c(cc7F)c(N7CCC(=O)NC7=O)nn8C)C(F)(F)C6)CC5)C4)c(=O)c3c2)c1C#N` (single isomer, unassigned) [Compound 214], on BRAF V600E (setting [1]), the DC50 was under 1000 nM. For the same molecule, the DC50 on BRAF V600E (setting [2]) was under 1000 nM. On BRAF V600E (setting [5]), the “HiBiT-Degradation A375.10 BRAF 2 hours Emax” value is “*** (<=50%)”. In the assay with A375-NRAS^Q61K cells, the GI50 is under 1000 nM and the “CTGlo A375.11 96 hours Emax” value is listed as “*** (<=50%)”.
